SMILES strings stand for the structures. The source made the active and inactive calls. The calls are words filed in the database; no cut-off is given here.

The test system of data set [1] is HeLa. The data set can be described thus: Antiproliferative activity against human HeLa cells after 36 hrs by MTT assay. The format is functional, cell-based. For orientation: Formazan colour is commonly taken as a measure of viable cells.
Data set [2] deals with HepG2. The data set can be described thus: Antiproliferative activity against human HepG2 cells after 36 hrs by MTT assay. It is filed as functional, cell-based. The following applies: HepG2, 36 h.
The subject of data set [3] is MCF7. Description: Antiproliferative activity against human MCF7 cells after 36 hrs by MTT assay. The format is functional, cell-based. The following applies: MCF7, 36 h.
The test system of data set [4] is A549. The data set can be described thus: Antiproliferative activity against human A549 cells after 36 hrs by MTT assay. The format is functional, cell-based. The following applies: A549, 36 h.
For data set [5], the system named is HUVEC. Description: Cytotoxicity against HUVEC assessed as reduction in cell viability after 36 hrs by MTT assay. It is filed as cell-based. The following applies: Homo sapiens.
Data set [6] concerns HepG2. The data set can be described thus: Induction of apoptosis in human HepG2 cells assessed as early apoptotic cells at 0.1 ug/ml after 24 hrs by Annexin V/propidium iodide staining based flow cytometry (reference value: 7.92%). It is filed as functional. In general terms: In flow cytometry, cells or beads pass a laser one at a time.
Data set [7] deals with HepG2. Description: Induction of apoptosis in human HepG2 cells assessed as late apoptotic cells at 0.1 ug/ml after 24 hrs by Annexin V/propidium iodide staining based flow cytometry (reference value: 7.09%). It is filed as functional.
Data set [8] relates to HepG2. The data set can be described thus: Induction of apoptosis in human HepG2 cells assessed as necrotic cells at 0.1 ug/ml after 24 hrs by Annexin V/propidium iodide staining based flow cytometry (reference value: 1.86%). The format is functional.
The subject of data set [9] is HepG2. Description: Induction of apoptosis in human HepG2 cells assessed as viable cells at 0.1 ug/ml after 24 hrs by Annexin V/propidium iodide staining based flow cytometry (reference value: 83.13%). The following applies: HepG2, 24 h, read-out: Activity. It is filed as functional.
Data set [10] deals with HepG2. Description: Induction of apoptosis in human HepG2 cells assessed as early apoptotic cells at 1 ug/ml after 24 hrs by Annexin V/propidium iodide staining based flow cytometry (reference value: 7.92%). It is filed as functional.
Data set [11] concerns HepG2. Description: Induction of apoptosis in human HepG2 cells assessed as late apoptotic cells at 1 ug/ml after 24 hrs by Annexin V/propidium iodide staining based flow cytometry (reference value: 7.09%). It is filed as functional.
Data set [12] deals with HepG2. The data set can be described thus: Induction of apoptosis in human HepG2 cells assessed as necrotic cells at 1 ug/ml after 24 hrs by Annexin V/propidium iodide staining based flow cytometry (reference value: 1.86%). The format is functional.
Data set [13] deals with HepG2. Description: Induction of apoptosis in human HepG2 cells assessed as viable cells at 1 ug/ml after 24 hrs by Annexin V/propidium iodide staining based flow cytometry (reference value: 83.13%). The format is functional. The following applies: HepG2, 24 h, read-out: Activity.
Data set [14] has as its system HepG2. The data set can be described thus: Induction of apoptosis in human HepG2 cells assessed as early apoptotic cells at 10 ug/ml after 24 hrs by Annexin V/propidium iodide staining based flow cytometry (reference value: 7.92%). It is filed as functional.
Data set [15] deals with HepG2. The data set can be described thus: Induction of apoptosis in human HepG2 cells assessed as late apoptotic cells at 10 ug/ml after 24 hrs by Annexin V/propidium iodide staining based flow cytometry (reference value: 7.09%). The format is functional.
Data set [16] deals with HepG2. Description: Induction of apoptosis in human HepG2 cells assessed as necrotic cells at 10 ug/ml after 24 hrs by Annexin V/propidium iodide staining based flow cytometry (reference value: 1.86%). The format is functional.
Data set [17] relates to HepG2. Description: Induction of apoptosis in human HepG2 cells assessed as viable cells at 10 ug/ml after 24 hrs by Annexin V/propidium iodide staining based flow cytometry (reference value: 83.13%). The format is functional. The following applies: HepG2, 24 h, read-out: Activity.
The subject of data set [18] is Salmon testes DNA. The data set can be described thus: Binding affinity to salmon sperm DNA assessed as DNA intercalation at 1.5 10^-5M by ethidium bromide staining based fluorescence assay. The following applies: Salmonidae. It is filed as nucleic-acid assay.
For data set [19], the system named is Salmon testes DNA. The data set can be described thus: Binding affinity to salmon sperm DNA assessed as hypochromic shift at 1.5 10^-5M by ethidium bromide staining based fluorescence assay. It is filed as nucleic-acid assay. The following applies: Salmonidae.
The subject of data set [20] is Salmon testes DNA. Description: Binding affinity to salmon sperm DNA assessed as DNA intercalation at 5 10^-5M by ethidium bromide staining based fluorescence assay. The format is nucleic-acid assay. The following applies: Salmonidae.
Data set [21] relates to Salmon testes DNA. Description: Binding affinity to salmon sperm DNA assessed as hypochromic shift at 5 10^-5M by ethidium bromide staining based fluorescence assay. The following applies: Salmonidae. The format is nucleic-acid assay.
A short description of data set [22]: Selectivity index, ratio of IC50 for HUVEC to IC50 for human HepG2 cells. The format is toxicity. The following applies: HUVEC and HepG2 cells, read-out: Ratio IC50.
The target in data set [23] is T1, Androgen receptor (Homo sapiens, UniProt P10275).
T1 sequence (P10275 whole entry): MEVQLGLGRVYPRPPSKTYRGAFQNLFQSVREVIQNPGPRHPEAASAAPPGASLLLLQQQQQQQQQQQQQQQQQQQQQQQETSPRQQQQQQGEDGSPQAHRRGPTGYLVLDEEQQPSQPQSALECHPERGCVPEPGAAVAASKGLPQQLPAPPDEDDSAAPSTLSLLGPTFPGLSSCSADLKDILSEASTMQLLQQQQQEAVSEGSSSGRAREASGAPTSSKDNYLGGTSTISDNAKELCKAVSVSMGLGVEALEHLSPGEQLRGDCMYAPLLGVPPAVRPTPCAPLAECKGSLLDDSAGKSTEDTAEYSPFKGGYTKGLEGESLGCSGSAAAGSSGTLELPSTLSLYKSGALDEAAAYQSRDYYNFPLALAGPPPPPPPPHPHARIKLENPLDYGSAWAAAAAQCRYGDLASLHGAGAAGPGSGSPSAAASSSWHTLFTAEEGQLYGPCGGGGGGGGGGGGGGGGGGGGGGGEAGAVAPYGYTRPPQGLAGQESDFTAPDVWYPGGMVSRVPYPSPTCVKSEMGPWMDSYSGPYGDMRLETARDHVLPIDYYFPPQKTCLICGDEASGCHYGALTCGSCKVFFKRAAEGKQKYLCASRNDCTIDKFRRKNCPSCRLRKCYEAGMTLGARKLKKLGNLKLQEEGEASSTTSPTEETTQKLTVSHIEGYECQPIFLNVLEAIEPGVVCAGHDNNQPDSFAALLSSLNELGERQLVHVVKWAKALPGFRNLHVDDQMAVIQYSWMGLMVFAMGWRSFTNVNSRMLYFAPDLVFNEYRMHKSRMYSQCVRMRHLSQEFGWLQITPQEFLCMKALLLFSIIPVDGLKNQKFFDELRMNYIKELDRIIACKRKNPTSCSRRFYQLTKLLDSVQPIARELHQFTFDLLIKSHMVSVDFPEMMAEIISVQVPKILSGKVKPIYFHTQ
Description: Binding affinity to androgen receptor (unknown origin).

The subject of data set [24] is Salmon testes DNA. The data set can be described thus: Binding affinity to salmon sperm DNA assessed as DNA intercalation by ethidium bromide staining based fluorescence assay. It is filed as nucleic-acid assay. The following applies: Salmonidae.

With `CC(C)c1ccc2c(c1)CC[C@H]1[C@](C)(CN)CCC[C@]21C`, the half-inhibitory concentration (IC50) (usually the point on the concentration scale where inhibition reaches its midpoint) amounted to 2.02 µM in [1]; 2.56 µM in data set [2]; 19.4 µM in data set [3]; 5.02 µM in [4]; 1.27 µM in data set [5]. For the same molecule, the Activity in [6] came to 22.94%; in data set [7], 15.46%; in data set [8] it was 0.69%; in data set [10] it was 44.79%; in [11], 22.98%; in [12], 0.24%. Moreover, the Activity turned out to be 91.91% in [14], 0.7% in [15] and 0% in data set [16]. Besides, in data set [9], the viability at 0.1 µg/mL came to 60.9%. Moreover, in [13], the viability at 1 µg/mL worked out at 32%. Further, in [17], the viability at 10 µg/mL was 1.4%.

On to `CC(C)c1ccc2c(c1)CC[C@H]1[C@](C)(C/N=C/c3ncc[nH]3)CCC[C@]21C`, for which the concentration for half-maximal inhibition (IC50) in data set [1] was determined as 3.22 µM; in data set [2] it was 0.24 µM; in [3], 4.28 µM; in data set [4] it was 3.17 µM; in data set [5] it was 7.67 µM. The Activity in data set [6] worked out at 26.33%; in data set [7], 18.54%; in data set [8], 0.69%; in data set [10] it was 51.15%; in data set [11], 10.13%; in data set [12] it was 0.25%. In addition, the Activity amounted to 98.32% in [14], 0.32% in data set [15] and 0% in data set [16]. Besides, the viability at 0.1 µg/mL in data set [9] was found to be 54.4%. For the same molecule, in data set [13], the viability at 1 µg/mL stood at 38.5%. The viability at 10 µg/mL in data set [17] was found to be 1.06%. The outcome in data set [18] and in [19] was Active.

Consider `CC(C)c1ccc2c(c1)CC[C@H]1[C@](C)(C/N=C/c3c[nH]cn3)CCC[C@]21C`, for which the IC50 in [1] worked out at 7.86 µM; in [2], 0.14 µM; in [3] it was 2.58 µM; in data set [4] it was 7 µM; in data set [5] it was 26 µM. Besides, the Activity in data set [6] was determined as 33.71%; in data set [7], 12.9%; in data set [8], 0.66%; in data set [10], 60.49%; in data set [11], 6.39%; in data set [12], 0.23%. The Activity in data set [14] is 98.78%; in [15], 0.29%; in [16], 0%. Also, the viability at 0.1 µg/mL in [9] stood at 52.7%. The viability at 1 µg/mL in [13] stood at 32.9%. The viability at 10 µg/mL in data set [17] stood at 0.93%. Besides, the result in [20] and in [21] was Active. Further, the selectivity ratio in [22] is 180.

In turn, `CC(C)c1ccc2c(c1)C(=O)C[C@H]1[C@@](C)(CNC(=O)c3ccccc3)CCC[C@]21C` came in with an IC50 in data set [23] of 83.8 µM.

In the case of `COc1cccc2c1C(=O)c1c(O)c3c(c(O)c1C2=O)C[C@@](O)(C(=O)CO)C[C@@H]3O[C@H]1C[C@H](N)[C@H](O)[C@H](C)O1` [DOXORUBICIN], the Activity in [6] is reported as 34.49%; in [7] it was 11.74%; in [8], 0.62%; in data set [10] it was 47.19%; in data set [11], 12.6%; in data set [12], 0.35%. For the same molecule, the figures for the Activity in [14], in data set [15] and in data set [16] were 70.12%, 3.57% and 0%, respectively. For the same molecule, the viability at 0.1 µg/mL in data set [9] worked out at 53.1%. Besides, in data set [13], the viability at 1 µg/mL is 39.9%. Also, the viability at 10 µg/mL in data set [17] is 26.3%. In data set [24], the result was Active.

Take `CC(C)c1ccc2c(c1)CC[C@H]1[C@](C)(C/N=C/c3cc(C(C)(C)C)cc(C(C)(C)C)c3O)CCC[C@]21C`: the IC50 in [1] turned out to be 41 µM; in data set [2] it was 17.6 µM; in data set [3], 5.41 µM; in [4] it was 40 µM; in [5], 41 µM. In addition, the outcome in [20] was Active.

Regarding `CCN(CC)c1ccc(/C=N/C[C@]2(C)CCC[C@]3(C)c4ccc(C(C)C)cc4CC[C@@H]23)c(O)c1`, the concentration for half-maximal inhibition (IC50) in data set [1] amounted to 11.2 µM; in [2], 10.7 µM; in data set [3], 14.1 µM; in [4], 17 µM; in data set [5], 43.1 µM. Moreover, in data set [20], the outcome was Active.

For `CC(C)c1ccc2c(c1)CC[C@H]1[C@](C)(C/N=C/c3cccc(C(C)(C)C)c3O)CCC[C@]21C`, the IC50 came to 20 µM in [1]; 10.5 µM in data set [2]; 25 µM in data set [3]; 41 µM in [4]; 33 µM in data set [5]. In data set [20], the result was Active.

These data come from ChEMBL document CHEMBL4145518, “High anticancer potency on tumor cells of dehydroabietylamine Schiff-base derivatives and a copper(II) complex” (Eur J Med Chem, 2018).
